Laboratory results published in patent US10954214B2 (Janssen Pharmaceutica NV, priority 2016, dated 2021).

Experiments:
[1] = target: full-length MALT1 protein (Strep-MALT1(1-824)-His) (Homo sapiens (Human), UniProt Q9UDY8); assay: MALT1 Biochemical Protease Assay (Ac-LRSR-AMC substrate); settings: 10 nM FL MALT1, 200 μM Ac-LRSR-AMC, 4 h at RT; read-out: MALT1_Biochemical activity (Ac-LRSR-amc) IC50
How it was run: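 Full-length MALT1 pre-incubated with compounds (30 μM to 0.5 nM, 11 threefold steps) for 50 min at RT. After Ac-LRSR-AMC was added, the reaction ran 4 h at RT and AMC fluorescence was read. IC50 and Hill slope from curve fitting against no-enzyme and no-compound controls.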

[2] = tested on: IL10 secretion by OCI-LY3 ABC-DLBCL cells; assay: Human IL10 Mesoscale assay (OCI-LY3); assay type: cell-based; settings: Homo sapiens, 24 h
How it was run: (§1)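 TMD8 or OCI-LY3 cells (100,000/well) were exposed to compounds in 9 twofold dilutions from 15 μM to 58.6 nM (0.3% DMSO) for 24 h at 37 °C. Supernatant IL6 and IL10 were quantified by MSD electrochemiluminescence immunoassay. DMSO defined maximum signal and BTK inhibitor RN486 (30 nM–131 pM) defined maximum inhibition.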

[3] = tested on: IL6 secretion by OCI-LY3 ABC-DLBCL cells; assay: Human IL6 Mesoscale assay (OCI-LY3); assay type: cell-based; settings: Homo sapiens, 24 h
How it was run: as §1

full-length MALT1 protein (Strep-MALT1(1-824)-His), sequence (Q9UDY8 whole entry): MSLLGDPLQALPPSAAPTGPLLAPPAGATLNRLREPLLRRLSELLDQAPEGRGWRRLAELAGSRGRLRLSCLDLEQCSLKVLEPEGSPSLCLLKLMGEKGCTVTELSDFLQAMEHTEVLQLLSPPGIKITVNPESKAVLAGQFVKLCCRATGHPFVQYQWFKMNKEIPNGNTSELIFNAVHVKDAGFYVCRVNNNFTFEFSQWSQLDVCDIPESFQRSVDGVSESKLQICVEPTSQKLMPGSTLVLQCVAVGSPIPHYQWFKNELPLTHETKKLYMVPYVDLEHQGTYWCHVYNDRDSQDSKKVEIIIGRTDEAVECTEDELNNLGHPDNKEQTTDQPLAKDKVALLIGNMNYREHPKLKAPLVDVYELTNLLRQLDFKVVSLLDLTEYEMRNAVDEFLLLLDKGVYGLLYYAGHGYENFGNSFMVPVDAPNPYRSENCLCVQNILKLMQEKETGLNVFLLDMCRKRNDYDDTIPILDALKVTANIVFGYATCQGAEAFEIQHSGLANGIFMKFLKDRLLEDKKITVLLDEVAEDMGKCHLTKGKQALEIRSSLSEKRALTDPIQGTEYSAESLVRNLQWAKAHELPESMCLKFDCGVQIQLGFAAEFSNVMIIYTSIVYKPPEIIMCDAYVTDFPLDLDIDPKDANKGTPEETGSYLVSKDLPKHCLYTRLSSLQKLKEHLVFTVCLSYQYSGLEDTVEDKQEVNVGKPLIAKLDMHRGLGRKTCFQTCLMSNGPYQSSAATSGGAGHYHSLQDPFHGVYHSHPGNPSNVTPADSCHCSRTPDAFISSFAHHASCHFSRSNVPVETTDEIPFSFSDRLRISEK

| IC50 [1] [nM] | IC50 [2] [nM] | IC50 [3] [nM] | Structure (SMILES) |
| --- | --- | --- | --- |
| 115 | 537 | 692 | O=C(Nc1cncc(Cl)c1)c1cnn(-c2cccc3c(=O)[nH]ccc23)c1C(F)(F)F [Cpd 353, N-(5-chloropyridin-3-yl)-1-(1-oxo-1,2-dihydroisoquinolin-5-yl)-5-(trifluoromethyl)-1H-pyrazole-4-carboxamide] |
| 79 | 93 | 186 | C[C@H](O)c1nccc2c(-n3ncc(C(=O)Nc4cnc(-n5nccn5)c(Cl)c4)c3C(F)(F)F)cccc12 (single isomer, unassigned) [Cpd 445, (*S)—N-(5-chloro-6-(2H-1,2,3-triazol-2-yl)pyridin-3-yl)-1-(1-(1-hydroxyethyl)isoquinolin-5-yl)-5-(trifluoromethyl)-1H-pyrazole-4-carboxamide] |
| 646 | 25 | 21 | Nc1nccc2c(-n3ncc(C(=O)Nc4cnc(-n5nccn5)c(Cl)c4)c3C(F)(F)F)cccc12 [Cpd 330, 1-(1-aminoisoquinolin-5-yl)-N-(5-chloro-6-(2H-1,2,3-triazol-2-yl)pyridin-3-yl)-5-(trifluoromethyl)-1H-pyrazole-4-carboxamide] |
| 95 | 36 | 50 | O=C(Nc1cnc(-n2nccn2)c(Cl)c1)c1cnn(-c2cnc(C(F)F)c3ccccc23)c1C(F)(F)F [Cpd 394, N-(5-chloro-6-(2H-1,2,3-triazol-2-yl)pyridin-3-yl)-1-(1-(difluoromethyl)isoquinolin-4-yl)-5-(trifluoromethyl)-1H-pyrazole-4-carboxamide] |
| 141 | 417 | 501 | O=C(Nc1cc(Cl)c(-n2nccn2)cc1F)c1cnn(-c2cccc3nnsc23)c1C(F)(F)F [Cpd 301, 1-(benzo[d][1,2,3]thiadiazol-7-yl)-N-(5-chloro-2-fluoro-4-(2H-1,2,3-triazol-2-yl)phenyl)-5-(trifluoromethyl)-1H-pyrazole-4-carboxamide] |
| 331 | 26 | 29 | O=C(Nc1cnc(-n2nccn2)c(Cl)c1)c1cnn(-c2cc(C3CCN3)nc3ccccc23)c1C(F)(F)F (stereo not drawn) [Cpd 382, 1-(2-(azetidin-2-yl)quinolin-4-yl)-N-(5-chloro-6-(2H-1,2,3-triazol-2-yl)pyridin-3-yl)-5-(trifluoromethyl)-1H-pyrazole-4-carboxamide] |
| 2000 | 12 | 12 | O=C(Nc1cnc(-n2nccn2)c(Cl)c1)c1cnn(-c2cccc3nc(C4CCCO4)ccc23)c1C(F)(F)F (stereo not drawn) [Cpd 372, N-(5-chloro-6-(2H-1,2,3-triazol-2-yl)pyridin-3-yl)-1-(2-(tetrahydrofuran-2-yl)quinolin-5-yl)-5-(trifluoromethyl)-1H-pyrazole-4-carboxamide] |
| 115 | 132 | 162 | Nc1ncc(-n2ncc(C(=O)Nc3cncc(C(F)(F)F)c3)c2C(F)(F)F)c2ccccc12 [Cpd 342, 1-(1-aminoisoquinolin-4-yl)-5-(trifluoromethyl)-N-(5-(trifluoromethyl)pyridin-3-yl)-1H-pyrazole-4-carboxamide] |
| 69 | 93 | 182 | O=C(Nc1ccnc(C(F)(F)F)c1)c1cnn(-c2cncc3c(F)cccc23)c1C(F)(F)F [Cpd 320, 1-(8-fluoroisoquinolin-4-yl)-5-(trifluoromethyl)-N-(2-(trifluoromethyl)pyridin-4-yl)-1H-pyrazole-4-carboxamide] |
| 60 | 24 | 25 | O=C(Nc1cnc(-n2nccn2)c(Cl)c1)c1cnn(-c2cnc(C3CCCO3)c3ccccc23)c1C(F)(F)F (stereo not drawn) [Cpd 365, N-(5-chloro-6-(2H-1,2,3-triazol-2-yl)pyridin-3-yl)-1-(1-(tetrahydrofuran-2-yl)isoquinolin-4-yl)-5-(trifluoromethyl)-1H-pyrazole-4-carboxamide] |
| 123 | 550 | 851 | O=C(Nc1cnc(-n2ccnn2)c(C(F)(F)F)c1)c1cnn(-c2cccc3ncccc23)c1C(F)(F)F [Cpd 283, N-(6-(1H-1,2,3-triazol-1-yl)-5-(trifluoromethyl)pyridin-3-yl)-1-(quinolin-5-yl)-5-(trifluoromethyl)-1H-pyrazole-4-carboxamide] |
| 282 | 12600 | > 15100 | COCc1cnnn1-c1ncc(NC(=O)c2cnn(-c3cccc4ncccc34)c2C(F)(F)F)cc1Cl [Cpd 253, N-(5-chloro-6-(5-(methoxymethyl)-1H-1,2,3-triazol-1-yl)pyridin-3-yl)-1-(quinolin-5-yl)-5-(trifluoromethyl)-1H-pyrazole-4-carboxamide] |
| 2570 | 589 | 741 | N#Cc1cc(NC(=O)c2cnn(-c3cccc4c(N)nccc34)c2C(F)(F)F)cnc1-n1nccn1 [Cpd 328, 1-(1-aminoisoquinolin-5-yl)-N-(5-cyano-6-(2H-1,2,3-triazol-2-yl)pyridin-3-yl)-5-(trifluoromethyl)-1H-pyrazole-4-carboxamide] |
| 933 | 31 | 43 | Cc1cc(NC(=O)c2cnn(-c3cccc4c(=O)[nH]ccc34)c2C(F)(F)F)ccn1 [Cpd 347, N-(2-methylpyridin-4-yl)-1-(1-oxo-1,2-dihydroisoquinolin-5-yl)-5-(trifluoromethyl)-1H-pyrazole-4-carboxamide] |
| 891 | 182 | 145 | Cc1cc2nccc(-n3ncc(C(=O)Nc4cnc(-n5nccn5)c(C#N)c4)c3C(F)(F)F)c2s1 [Cpd 232, N-(5-cyano-6-(2H-1,2,3-triazol-2-yl)pyridin-3-yl)-1-(2-methylthieno[3,2-b]pyridin-7-yl)-5-(trifluoromethyl)-1H-pyrazole-4-carboxamide] |
| 275 | 224 | 457 | N#Cc1cncc(NC(=O)c2cnn(-c3cccc4c(=O)[nH]ccc34)c2C(F)(F)F)c1 [Cpd 346, N-(5-cyanopyridin-3-yl)-1-(1-oxo-1,2-dihydroisoquinolin-5-yl)-5-(trifluoromethyl)-1H-pyrazole-4-carboxamide] |
| 76 | 871 | 1580 | N#Cc1cc(NC(=O)c2cnn(-c3ncnc4scnc34)c2C(F)(F)F)cnc1-n1nccn1 [Cpd 294, N-(5-cyano-6-(2H-1,2,3-triazol-2-yl)pyridin-3-yl)-1-(thiazolo[5,4-d]pyrimidin-7-yl)-5-(trifluoromethyl)-1H-pyrazole-4-carboxamide] |
| 174 | 141 | 195 | CNc1ncc(-n2ncc(C(=O)Nc3cnc(-n4nccn4)c(Cl)c3)c2C(F)(F)F)c2ccccc12 [Cpd 323, N-(5-chloro-6-(2H-1,2,3-triazol-2-yl)pyridin-3-yl)-1-(1-(methylamino)isoquinolin-4-yl)-5-(trifluoromethyl)-1H-pyrazole-4-carboxamide] |
| 282 | 123 | 158 | Cc1nc(-n2nccn2)c(Cl)cc1NC(=O)c1cnn(-c2cccc3scnc23)c1C(F)(F)F [Cpd 252, 1-(benzo[d]thiazol-4-yl)-N-(5-chloro-2-methyl-6-(2H-1,2,3-triazol-2-yl)pyridin-3-yl)-5-(trifluoromethyl)-1H-pyrazole-4-carboxamide] |
| 224 | 71 | 95 | O=C(Nc1cnc(-n2nnc3cnccc32)c(Cl)c1)c1cnn(-c2cccc3ncccc23)c1C(F)(F)F [Cpd 163, N-(6-(1H-[1,2,3]triazolo[4,5-c]pyridin-1-yl)-5-chloropyridin-3-yl)-1-(quinolin-5-yl)-5-(trifluoromethyl)-1H-pyrazole-4-carboxamide] |
| 20 | 37 | 69 | Cc1nc(-n2nccn2)c(Br)cc1NC(=O)c1cnn(-c2cnc(N)c3ccccc23)c1C(F)(F)F [Cpd 343, 1-(1-aminoisoquinolin-4-yl)-N-(5-bromo-2-methyl-6-(2H-1,2,3-triazol-2-yl)pyridin-3-yl)-5-(trifluoromethyl)-1H-pyrazole-4-carboxamide] |
| 110 | 98 | 115 | O=C(Nc1cnc(-n2nccn2)c(Cl)c1)c1cnn(-c2cnc(C3COCCO3)c3ccccc23)c1C(F)(F)F (stereo not drawn) [Cpd 367, 1-(1-(1,4-dioxan-2-yl)isoquinolin-4-yl)-N-(5-chloro-6-(2H-1,2,3-triazol-2-yl)pyridin-3-yl)-5-(trifluoromethyl)-1H-pyrazole-4-carboxamide] |
| 81 | 110 | 186 | O=C(Nc1cnc(-n2nccn2)c(Cl)c1)c1cnn(-c2nsc3ccccc23)c1C(F)(F)F [Cpd 290, 1-(benzo[d]isothiazol-3-yl)-N-(5-chloro-6-(2H-1,2,3-triazol-2-yl)pyridin-3-yl)-5-(trifluoromethyl)-1H-pyrazole-4-carboxamide] |
| 74 | 724 | 1260 | Cc1nc2ccccn2c1-n1ncc(C(=O)Nc2cnc(-n3nccn3)c(C#N)c2)c1C(F)(F)F [Cpd 295, N-(5-cyano-6-(2H-1,2,3-triazol-2-yl)pyridin-3-yl)-1-(2-methylimidazo[1,2-a]pyridin-3-yl)-5-(trifluoromethyl)-1H-pyrazole-4-carboxamide] |
| 13500 | 60 | 79 | O=C(Nc1ccncc1)c1cnn(-c2cccc3c(=O)[nH]ccc23)c1C(F)(F)F [Cpd 349, 1-(1-oxo-1,2-dihydroisoquinolin-5-yl)-N-(pyridin-4-yl)-5-(trifluoromethyl)-1H-pyrazole-4-carboxamide] |
